Assay results as given in patent US10668048B2, “Compounds for inhibiting bacterial growth via phosphatidylglycerol binding” (Wichita State University, priority 2016, dated 2020).

Assays:
[1] = tested on: Enterococcus faecalis 29213; test: MIC in LB culture; type: cell-based
Procedure: Strep fuecalis (aka Enterococcus faecalis 29213) cultures were prepared the same way as S. aureus, and analyzed as above. […] The OD600 of the control was 0.72. […] See photos for visual representation. See FIG. 11D for a visual image of the S. fuecalis cultures.

[2] = tested on: HepG2 human hepatocyte cells; test: Hepatocyte toxicity, MTT assay; type: cell-based; conditions: 9-12 hours; down to 0.5 μM
Procedure: Toxicity of compounds to eukaryotic cells was assessed by MTT assay of cultured HepG2 human hepatocyte cells grown in media supplemented with 10% fetal bovine serum and antibiotics.
Human liver HepG2 cells were cultured in 100 mm^2 Falcon tissue culture plates in DMEM with high glucose (4500 mg/L) supplemented with 10% fetal bovine serum, 50 μg/ml streptomycin and 50 IU/ml penicillin at 37° C. and 5% CO2. Cells were cultured to about 70-80% confluence, and then seeded into 96 well plates depending and grown to 70-80% confluence for 2-3 days unless otherwise stated.
Cell viability was determined by MTT [3-(4,5-dimethylthiazol-2-yl)-2,5-diphenyltetrazolium bromide)] assay (Denizot & Lang 1986). Briefly, cells were seeded on 96-well plates and allowed to grow until 70-80% confluence. Prior to the experiment, medium was replaced with KRB containing a desired concentration of the toxin or other reagents and incubated for 9 h to 12 h depending on the experiment at 37° C. […] The resulting formazan was solubilized by the addition of 210 μL detergent solution (50% DMF, 20% SDS) followed by incubation for 4 h at 37° C. and was quantified based on the difference in the absorbance at 570 nm and 650 nm (Mosmann 1983). Results are expressed as viability of toxin treated cells with respect to control cells which were treated under the same conditions except in the absence of the toxin. […]

[3] = FCS binding of liptin to PG at the membrane interface (liposomes, surfactant vesicles)
Procedure: The porphyrin 3e was used to examine the liptin's affinity and selectivity for PG when PG was present as part of a membrane bilayer. In this example, fluorescence correlation spectroscopy (FCS) was used to measure the fraction of liptin bound to surfactant vesicles or liposomes containing a known amount of PG. This approach is fast, reliable and accurate, and is possible when the liptin is a stable fluorophore, as in the case of 3e.
FCS results are evaluated by treating the time dependent fluorescence intensity acquired from a dilute solution of the liptin using a focused laser beam as the excitation source. Temporal fluctuations in the fluorescence intensity are a result of the diffusion of the liptin through the focused laser beam. When the liptin binds to a vesicle, its apparent diffusion coefficient decreases by two orders of magnitude.
FIG. panels 9A and 9C contain examples of autocorrelation decays for liptin 3e in with liposomes (FIG. 9A) and surfactant vesicles (FIG. 9C) containing varying amounts of PG. Specifically, FIG. 9 illustrates an autocorrelation analysis of liptin 3e binding to PG-doped membranes of liposomes and positively-charged surfactant vesicles. A) Autocorrelation decays for liptin with varying percentages of PG in PE liposome. B) Binding constant values as a function of PS and PG in PE liposome. C) Autocorrelation decays for liptin with varying percentages of PG in positively-charged surfactant vesicles. D) Binding constant of liptin with varying percentages of PG in positively-charged surfactant vesicles. […] In FIGS. 9A and 9C, the markers are the experimental data and the solid lines are the fits that determine the fraction of liptin bound, f. This quantity is then used to calculate the binding constant:
[formula] where [R] is the total concentration of […], and it has been assumed that half of the PG is located on the membrane inner leaflet and thus not available for binding.

Water solubility = type: physicochemical; conditions: TFA counterions
From the text: Route 1 involves reductive amination of the uncharged glycine picket with an aldehyde. Route 2 involves amidation of the meso-phenylamines via addition of chloroacetyl chloride followed by the SN2 addition of amines to the resultant alkyl chloride (examples of alkyl, polyether, or benzyl amines are shown in Scheme 1). Route 2 is capable of furnishing a more diverse set of pickets, and modeling has shown that the use of the aryl amines shown in Scheme 1 would position their phenolic OH groups to allow for hydrogen bonding with the lipid's fatty acid ester groups. At the present time, porphyrins 3f-h have been furnished using Route 2. Route 3 involves the transformation of the meso-phenylamines into phenylisocyanates, followed by the addition of a substituted hydrazine (prepared from an aldehyde and hydrazine to form the hydrazone followed by reductive amination or with commercially available hydrazines) to furnish a semicarbazide group whose nitrogen can be charged (FIG. 6). The urea portion of the semicarbazide would provide additional strong hydrogen-bonding sites for the glycerol hydroxyl groups.

In the case of `NCC(=O)Nc1ccccc1-c1c2nc(c(-c3ccccc3NC(=O)CN)c3ccc([nH]3)c(-c3ccccc3NC(=O)CN)c3nc(c(-c4ccccc4NC(=O)CN)c4ccc1[nH]4)C=C3)C=C2.O=C(O)C(F)(F)F.O=C(O)C(F)(F)F.O=C(O)C(F)(F)F.O=C(O)C(F)(F)F` [Liptin 3e], the “effect on bacterial growth” value [1] is reported as “inhibits bacterial growth”, the “toxicity (cell viability, MTT)” value [2] is reported as “lack of toxicity” and the “PG binding affinities at the membrane interface” value ([3]; FCS) is reported as ~10^4 M^−1. For the same compound, the Ka ([3]; Lipid vesicles containing 10-30% PG) was 10^4, the “selectivity of binding PG vs phosphatidylserine (PS)” value ([3]; lipid vesicles of binary mixtures of PG or PS with PE) was “selective for PG over the PS” and the “binding to surfactant vesicle without PG” value ([3]; no PG, only anionic component sodium dodecylbenzenesulfonate (SDBS)) was “Negligible binding”. For the same compound, the binding constant ([3]; surfactant vesicle with 1% of PG and 35% SDBS) was 47000 M⁻¹ and the water solubility (Water solubility) was “quite water soluble”.
